Experimental data published in US20130267533A1, “5HT1A AGONISTS FOR TREATMENT OF HIGH CHOLESTEROL” (FABRE-KRAMER PHARMACEUTICALS, INC., priority 2012, published 2013).
Structures can show the parent of a compound that is named as a salt. Where two headings read alike, the source gives them in different places. Values belong to the compound of their own block, whether it stands above or below them.

Key:
[1] = pre-clinical tests; cited from earlier work
[2] = Plasma levels of 3-OH gepirone after gepirone treatment; assay type: in vivo; conditions: animals and humans treated with gepirone
Text: 3-OH gepirone has the same receptor binding, therefore, it is theorized that 3-OH-gepirone accounts for at least some of the effect noted with gepirone.

[3] = test system: post-synaptic receptors in the hippocampus; conditions: cited from earlier work
subjects with anxiety = test: Total cholesterol in random subset of 103 subjects from adatanserin study 790-210; assay type: in vivo, human
Text: Adatanserin is another drug with similar properties. The studies done in adatanserin were largely done on anxiety, not depression. It was not known if the cholesterol levels in subjects with anxiety are elevated. (In the small sample studied below, the levels are not elevated). One paper in subjects with panic disorder claims that paroxetine treatment elevated plasma cholesterol (Kim E J, YU B-H, Increased Cholesterol Levels After Paroxetine Treatment in Patients with panic Disorder. J Clinical Psychopharmacol 2005; 25:597-599). However, to see if adatanserin might also have cholesterol lowering properties, the inventors of the present invention examined a random subset of 103 subjects from study 790-210.

[4] = test system: subjects with Major Depression; test: Non-fasting total cholesterol at baseline and 8 weeks in 10 clinical studies of Gepirone-ER, meta-analysis; assay type: in vivo, human; conditions: for cholesterol levels, SSRI vs placebo: paroxetine one study n=143 p=0.045, fluoxetine three studies n=295 p=0.014, FIG. 4
Protocol: In 10 clinical studies of the antidepressant effects of Gepirone-ER comprised of 2302 subjects with Major Depression safety measurements included non-fasting measurements of cholesterol at baseline and at 8 weeks (endpoint). A JMP-7 one way ANOVA of the data provided results for individual studies which were then analyzed by meta-analysis. […] So, analysis of the effect of gepirone on cholesterol levels in the 40-59 year range was conducted.

[5] = test system: MDD subjects over or under 200 mg/dL cholesterol; test: Gepirone-ER antidepressant efficacy (HAMD-17) by cholesterol level, 8 double-blind MDD studies; assay type: in vivo, human; conditions: for HAMD responders percent: responder = 50% decrease in HAMD-17
Text: The effects of cholesterol on gepirone-ER efficacy was investigated. […] As such, it was expected that the results for gepirone to be similar to that of Fava. […] Corresponding placebo values were generated as well.
The total population used was 10 times greater than the Fava Study addressed in the background section (Sonawalla S B, Papakostas G I, Petersen T J, Yeung A S, Smith M M, Sickinger A H, Gordon J, Israel J A, Tedlow J R, Lamon-Fava S, Fava M, Elevated cholesterol levels associated with nonresponse to fluoxetine treatment in major depressive disorder. Psychosomatics. 2002; 43:310-6). Using the cutoff value of 200 mg/dL, there were 1264 subjects above 200 mg/dL and 1225 subjects below. […] The respective average cholesterol levels were 234.3±29.7 and 169.9±21.2, similar to the Fava data.
The results there compared by t-test of odds ratio programs. The results for gepirone were examiner in 8 MDD studies. The low cholesterol group treated with gepirone-ER had 41.2% responders compared to the high cholesterol treated group 43.3% responders, a […] favoring the high cholesterol group (p=0.58)(Table 2). When the gepirone ER and placebo groups (Table 2) are compared, the high cholesterol gepirone treated group is 13.6% better than placebo (p=0.002), whereas the difference between the low cholesterol gepirone and placebo group is 0.5%, (p=0.602). However, the over 200 placebo group is 11% less than the under 200 placebo group (p=0.004).

depressed subjects = conditions: open label, cited from earlier work

Structure (SMILES): c1cnc(N2CCNCC2)nc1 [1-PP, 1-(2-pyrimidinyl)piperazine]
antidepressant-like characteristics [1]: did not exhibit antidepressant-like characteristics

plasma levels of metabolite relative to gepirone [2]: greater than that of gepirone
Structure (SMILES): CC1(C)CC(=O)N(CCCCN2CCN(c3ncccn3)CC2)C(=O)C1O (centres unmarked) [3-OH gepirone]
type of agonism at post-synaptic receptors [3]: full agonism

Structure (SMILES): O=C(NCCN1CCN(c2ncccn2)CC1)C12CC3CC(CC(C3)C1)C2 [Adatanserin, N-[2-[4-(2-pyrimidinyl)-1-piperazinyl]ethyl]tricyclo[3.3.1.1^3,7]decane-1-carboxamide]
Difference in cholesterol change between adatanserin and placebo (subjects with anxiety; adatanserin n=76 vs placebo n=27, p=0.011): 15.22 mg/dL | Total Cholesterol after treatment, mean (SD) (subjects with anxiety; n=76, after treatment): 197.46 (44.1) mg/dL | Total Cholesterol at baseline, mean (SD) (subjects with anxiety; n=76, at baseline): 204.46 (46.4) mg/dL | Change in Total Cholesterol (subjects with anxiety; n=76, baseline to after treatment): -7.00 mg/dL

Structure (SMILES): CC1(C)CC(=O)N(CCCCN2CCN(c3ncccn3)CC2)C(=O)C1 [Gepirone, 4,4-dimethyl-1-[4-[-(2-pyrimidinyl)-1-piperazinyl]-butyl]-2,6-piperidinedione hydrochloride]
average drop in total cholesterol, meta-analysis ([4]; 10 studies, p=0.016, FIG. 6): 2.8 mg/dL | number of studies with lower total cholesterol levels ([4]; of 10 studies): 7 | change in cholesterol levels ([4]; patients in the 40-59 year range, FIG. 7): -5 mg/dL | HAMD change from baseline Δ means ± SD ([5]; cholesterol over 200 mg/dL, n=344, p=0.001 vs placebo): −9.58 ± 7.2 | HAMD responders percent ([5]; cholesterol over 200 mg/dL, n=344, p=0.002 vs placebo): 43.3% | HAMD change from baseline Δ means ± SD ([5]; cholesterol under 200 mg/dL, n=354, p=0.656 vs placebo): −9.48 ± 7.4 | HAMD responders percent ([5]; cholesterol under 200 mg/dL, n=354, p=0.602 vs placebo): 41.2% | difference in responders vs placebo ([5]; high cholesterol group (over 200 mg/dL), p=0.002): 13.6% | HAMD change from baseline, difference in means vs placebo ([5]; high cholesterol group, p=0.001): −1.77 points | difference in responders vs placebo ([5]; low cholesterol group (under 200 mg/dL), p=0.602): 0.5% | HAMD change from baseline, standard difference in means vs placebo ([5]; low cholesterol group, p=0.656): −0.02 points | HAMD change from baseline, over vs. under Δ(Δ means) ([5]; over 200 vs under 200 mg/dL, p=0.856): 0.10

Structure (SMILES): CNCCC(Oc1ccc(C(F)(F)F)cc1)c1ccccc1 (centres unmarked) [fluoxetine]
cholesterol levels, SSRI vs placebo [4]: placebo statistically better then fluoxetine | response rate (50% decrease from baseline HAMD-17) (depressed subjects; cholesterol above 200 mg/dL): 46% | response rate (50% decrease from baseline HAMD-17) (depressed subjects; cholesterol below 200 mg/dL): 54%

Structure (SMILES): Fc1ccc([C@@H]2CCNC[C@H]2COc2ccc3c(c2)OCO3)cc1 [paroxetine]
cholesterol levels, SSRI vs placebo [4]: placebo statistically better than paroxetine
